Results published in patent US20230382925A1, “MODULATORS OF CYSTIC FIBROSIS TRANSMEMBRANE CONDUCTANCE REGULATOR” (VERTEX PHARMACEUTICALS INCORPORATED, priority 2020, published 2023).
Like-named read-outs stand apart in the source and are kept apart here.

Biological target: CFTR (Homo sapiens, UniProt P13569)
Assay: Membrane Potential Dye, Enteroid Assay B
Type: cell-based
In short: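 Human intestinal enteroid cells exposed to compound 18-24 h at 37 °C, then loaded with methyl oxonol membrane-potential dye plus CaCC blockers. Chloride transport triggered in chloride-free buffer with 10 μM forskolin, 100 μM IBMX, 300 nM Compound III; fluorescence read 15 min, expressed as % of triple-corrector/potentiator combination control.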

[1] = Table 10, read-out: Ent. B EC50

CFTR, sequence (P13569 with tags, fused parts or gaps DEL508-508): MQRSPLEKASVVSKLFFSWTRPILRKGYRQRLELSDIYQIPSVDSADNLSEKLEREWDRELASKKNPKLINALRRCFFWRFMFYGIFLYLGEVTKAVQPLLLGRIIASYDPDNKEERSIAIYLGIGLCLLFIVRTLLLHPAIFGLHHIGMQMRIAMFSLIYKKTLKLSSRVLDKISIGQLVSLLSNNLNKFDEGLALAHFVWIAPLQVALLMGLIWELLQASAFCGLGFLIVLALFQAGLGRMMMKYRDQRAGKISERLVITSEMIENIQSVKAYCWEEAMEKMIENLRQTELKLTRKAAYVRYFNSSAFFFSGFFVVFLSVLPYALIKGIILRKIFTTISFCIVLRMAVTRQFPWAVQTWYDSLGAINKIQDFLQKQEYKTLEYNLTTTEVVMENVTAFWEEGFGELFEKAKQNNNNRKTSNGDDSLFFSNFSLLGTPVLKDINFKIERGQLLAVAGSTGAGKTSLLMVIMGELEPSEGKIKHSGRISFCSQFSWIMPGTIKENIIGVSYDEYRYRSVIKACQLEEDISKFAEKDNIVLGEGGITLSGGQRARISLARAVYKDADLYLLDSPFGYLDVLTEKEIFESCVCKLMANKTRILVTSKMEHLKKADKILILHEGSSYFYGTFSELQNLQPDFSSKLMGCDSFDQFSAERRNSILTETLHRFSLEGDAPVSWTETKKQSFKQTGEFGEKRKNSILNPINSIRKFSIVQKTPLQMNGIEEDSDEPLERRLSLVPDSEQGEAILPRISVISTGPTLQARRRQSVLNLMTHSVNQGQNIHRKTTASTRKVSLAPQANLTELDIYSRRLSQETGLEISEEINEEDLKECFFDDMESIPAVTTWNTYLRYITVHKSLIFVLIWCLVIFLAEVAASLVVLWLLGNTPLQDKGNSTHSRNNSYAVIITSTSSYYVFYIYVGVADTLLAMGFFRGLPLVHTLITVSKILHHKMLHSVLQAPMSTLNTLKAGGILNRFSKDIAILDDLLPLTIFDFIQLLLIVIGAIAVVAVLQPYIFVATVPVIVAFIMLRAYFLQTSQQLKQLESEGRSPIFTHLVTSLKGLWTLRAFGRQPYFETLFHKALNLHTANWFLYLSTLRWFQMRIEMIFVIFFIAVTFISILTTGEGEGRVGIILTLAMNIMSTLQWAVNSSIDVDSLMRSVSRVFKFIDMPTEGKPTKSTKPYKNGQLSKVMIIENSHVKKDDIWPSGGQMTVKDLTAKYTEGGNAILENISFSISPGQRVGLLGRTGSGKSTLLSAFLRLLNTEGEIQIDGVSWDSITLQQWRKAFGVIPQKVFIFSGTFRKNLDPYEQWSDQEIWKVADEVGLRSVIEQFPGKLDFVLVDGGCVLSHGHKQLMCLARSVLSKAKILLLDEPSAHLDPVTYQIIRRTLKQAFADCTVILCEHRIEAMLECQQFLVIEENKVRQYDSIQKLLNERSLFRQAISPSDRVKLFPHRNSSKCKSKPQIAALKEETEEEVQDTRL

Compound | Ent. B Max Activity (%) (Table 9) | EC50 (Table 9, read-out: Ent. B EC50) [nM] | Ent. B Max Activity (%) | EC50 (read-out: Ent. B EC50) [nM] | other results
Cc1cccc(C)c1-c1cc2nc(n1)NS(=O)(=O)c1cccc(c1)C(=O)N([C@H]1C[C@@]3(C[C@H](NC(C)C)C3)C1)[C@H](CC1(C(F)(F)F)CC1)CO2 (stereo partly drawn) [Compound 266] | +++ (+++ is >60%) | < 1000 |  |  | 
CN[C@H]1C[C@@]2(C1)C[C@H](N1C(=O)c3cccc(c3)S(=O)(=O)Nc3nc(cc(-c4c(C)cccc4C)n3)OC[C@H]1CC1(C(F)(F)F)CC1)C2 (stereo partly drawn) [Compound 267] | +++ (+++ is >60%) | < 1000 |  |  | 
CN[C@H]1C[C@]2(C1)C[C@H](N1C(=O)c3cccc(c3)S(=O)(=O)Nc3nc(cc(-c4c(C)cccc4C)n3)OC[C@H]1CC1(C(F)(F)F)CC1)C2 (stereo partly drawn) [Compound 268] | +++ (+++ is >60%) | < 1000 |  |  | 
COCCN[C@H]1C[C@@]2(C1)C[C@H](N1C(=O)c3cccc(c3)S(=O)(=O)Nc3nc(cc(-c4c(C)cccc4C)n3)OC[C@H]1CC1(C(F)(F)F)CC1)C2 (stereo partly drawn) [Compound 269] | +++ (+++ is >60%) | < 1000 |  |  | 
COCCN[C@H]1C[C@]2(C1)C[C@H](N1C(=O)c3cccc(c3)S(=O)(=O)Nc3nc(cc(-c4c(C)cccc4C)n3)OC[C@H]1CC1(C(F)(F)F)CC1)C2 (stereo partly drawn) [Compound 270] | +++ (+++ is >60%) | < 1000 |  |  | 
Cc1cccc(C)c1-c1cc2nc(n1)NS(=O)(=O)c1cccc(c1)C(=O)N([C@H]1C[C@]3(C[C@H](N(C)C(=O)OC(C)C)C3)C1)[C@H](CC1(C(F)(F)F)CC1)CO2 (stereo partly drawn) [Compound 271] | +++ (+++ is >60%) | < 1000 |  |  | 
Cc1cccc(C)c1-c1cc2nc(n1)NS(=O)(=O)c1cccc(c1)C(=O)N([C@H]1C[C@@]3(C[C@H](N(C)C(=O)OC(C)C)C3)C1)[C@H](CC1(C(F)(F)F)CC1)CO2 (stereo partly drawn) [Compound 272] | +++ (+++ is >60%) | < 1000 |  |  | 
COC(=O)N[C@H]1C[C@@]2(C1)C[C@H](N1C(=O)c3cccc(c3)S(=O)(=O)Nc3nc(cc(-c4c(C)cccc4C)n3)OC[C@H]1CC1(C(F)(F)F)CC1)C2 (stereo partly drawn) [Compound 273] | +++ (+++ is >60%) | < 1000 |  |  | 
COC(=O)N[C@H]1CC2(C1)C[C@H](N1C(=O)c3cccc(c3)S(=O)(=O)Nc3nc(cc(-c4c(C)cccc4C)n3)OC[C@H]1CC1(C(F)(F)F)CC1)C2 (stereo partly drawn) [Compound 274] | +++ (+++ is >60%) | < 1000 |  |  | 
Cc1cccc(C)c1-c1cc2nc(n1)NS(=O)(=O)c1cccc(c1)C(=O)N(C1CC3(CCN(C4CCOCC4)CC3)C1)[C@H](CC(C)C)CO2 [Compound 275] | +++ (+++ is >60%) | < 1000 |  |  | 
Cc1cccc(C)c1-c1cc2nc(n1)NS(=O)(=O)c1cccc(c1)C(=O)N(C1CC3(CCN(C4CC(F)(F)C4)CC3)C1)[C@H](CC(C)C)CO2 [Compound 276] | +++ (+++ is >60%) | < 1000 |  |  | 
Cc1cccc(C)c1-c1cc2nc(n1)NS(=O)(=O)c1cccc(c1)C(=O)N(C1CC3(CCN(CCOC4CC4)CC3)C1)[C@H](CC(C)C)CO2 [Compound 278] | +++ (+++ is >60%) | < 1000 |  |  | 
Cc1cccc(C)c1-c1cc2nc(n1)NS(=O)(=O)c1cccc(c1)C(=O)N(C1CC3(CCN(CC(C)(C)C)CC3)C1)[C@H](CC(C)C)CO2 [Compound 279] | +++ (+++ is >60%) | < 1000 |  |  | 
Cc1cccc(C)c1-c1cc2nc(n1)NS(=O)(=O)c1cccc(c1)C(=O)N(C1CC3(CCN(C4CCC4)CC3)C1)[C@H](CC(C)C)CO2 [Compound 280] | +++ (+++ is >60%) | < 1000 |  |  | 
CN[C@H]1CC2(C1)C[C@H](N1C(=O)c3cccc(c3)S(=O)(=O)Nc3nc(cc(-c4c(C)cccc4C)n3)OC[C@H]1CC(C)C)C2 (stereo partly drawn) [Compound 281] | +++ (+++ is >60%) | < 1000 |  |  | 
Cc1cccc(C)c1-c1cc2nc(n1)NS(=O)(=O)c1cccc(c1)C(=O)N([C@H]1CC3(C[C@H](N(C)C(=O)OC(C)C)C3)C1)[C@H](CC(C)C)CO2 (stereo partly drawn) [Compound 283] | ++ (++ is 30-60%) | < 1000 |  |  | 
[H][C@]1(N2C(=O)c3cccc(c3)S(=O)(=O)Nc3nc(cc(-c4c(C)cccc4C)n3)OC[C@H]2CC(C)C)C[C@@]2(C[C@H](N(C)C(=O)OC(C)C)C2)C1 (stereo partly drawn) [Compound 284] | ++ (++ is 30-60%) | < 1000 |  |  | 
[H][C@]1(N2C(=O)c3cccc(c3)S(=O)(=O)Nc3nc(cc(-c4c(C)cccc4C)n3)OC[C@H]2CC(C)C)C[C@@]2(C[C@H](N(C)CCOC)C2)C1 (stereo partly drawn) [Compound 285] | +++ (+++ is >60%) | < 1000 |  |  | 
[H][C@]1(N2C(=O)c3cccc(c3)S(=O)(=O)Nc3nc(cc(-c4c(C)cccc4C)n3)OC[C@H]2CC(C)C)C[C@@]2(C[C@H](N(C)CCOC)C2)C1 (stereo partly drawn) [Compound 286] | +++ (+++ is >60%) | < 1000 |  |  | 
Cc1cccc(C)c1-c1cc2nc(n1)NS(=O)(=O)c1cccc(c1)C(=O)N(C1CC3(CCN(CCO)CC3)C1)[C@H](CC(C)C)CO2 [Compound 289] | ++ (++ is 30-60%) | < 1000 |  |  | 
Cc1cccc(C)c1-c1cc2nc(n1)NS(=O)(=O)c1cccc(c1)C(=O)N(C1CC3(CCN(CCOCc4ccccc4)CC3)C1)[C@H](CC(C)C)CO2 [Compound 290] | +++ (+++ is >60%) | < 1000 |  |  | 

Compound | Ent. B Max Activity (%) (Table 9) | EC50 (Table 9, read-out: Ent. B EC50) [nM] | Ent. B Max Activity (%) | EC50 (read-out: Ent. B EC50) [nM] | other results
Cc1cccc(C)c1-c1cc2nc(n1)NS(=O)(=O)c1cc(n(C)n1)C(=O)N(C1CC3(CCN(C)CC3)C1)[C@H](CC(C)C)CO2 [Compound 293] | +++ (+++ is >60%) | 1000 to 3000 |  |  | 
[H][C@]1(N2C(=O)c3cccc(c3)S(=O)(=O)Nc3nc(cc(-c4c(C)cccc4C)n3)OC[C@H]2CC2(C(F)(F)F)CC2)C[C@@]2(C[C@H](N(C)C)C2)C1 (stereo partly drawn) [Compound 297] |  |  | +++ (+++ is >60%) | < 1000 | 
[H][C@]1(N2C(=O)c3cccc(c3)S(=O)(=O)Nc3nc(cc(-c4c(C)cccc4C)n3)OC[C@H]2CC2(C(F)(F)F)CC2)C[C@@]2(C[C@H](N(C)C)C2)C1 (stereo partly drawn) [Compound 298] |  |  | +++ (+++ is >60%) | < 1000 | 
Cc1cccc(C)c1-c1cc2nc(n1)NS(=O)(=O)c1cccc(c1)C(=O)N(C1CC3(CCN(CCOC(F)(F)F)CC3)C1)[C@H](CC(C)C)CO2 [Compound 299] |  |  | +++ (+++ is >60%) | < 1000 | 
Cc1cccc(C)c1-c1cc2nc(n1)NS(=O)(=O)c1cccc(c1)C(=O)N(C1CC3(CCN(CCOC(C)C)CC3)C1)[C@H](CC(C)C)CO2 [Compound 300] |  |  |  | < 1000 | 
Cc1cccc(C)c1-c1cc2nc(n1)NS(=O)(=O)c1cccc(c1)C(=O)N([C@H]1C[C@@H](N(C)C)C1)[C@H](CC(C)C)CO2 [Compound 302] |  |  | +++ (+++ is >60%) | < 1000 | 
CCCN1CCC2(CC1)CC(N1C(=O)c3cccc(c3)S(=O)(=O)Nc3nc(cc(-c4c(C)cccc4C)n3)OC[C@H]1CC(C)C)C2 [Compound 303] |  |  | +++ (+++ is >60%) | < 1000 | 
COC(=O)N[C@H]1CC2(C1)C[C@H](N1C(=O)c3cccc(c3)S(=O)(=O)Nc3nc(cc(-c4c(C)cccc4C)n3)OC[C@H]1CC(C)C)C2 (stereo partly drawn) [Compound 304] |  |  | +++ (+++ is >60%) | < 1000 | 
COC(=O)N[C@H]1CC2(C1)C[C@H](N1C(=O)c3cccc(c3)S(=O)(=O)Nc3nc(cc(-c4c(C)cccc4C)n3)OC[C@H]1CC(C)C)C2 (stereo partly drawn) [Compound 305] |  |  | +++ (+++ is >60%) | < 1000 | 
COCCN(C)C(=O)C1CC(N2C(=O)c3cccc(c3)S(=O)(=O)Nc3nc(cc(-c4c(C)cccc4C)n3)OC[C@H]2CC(C)C)C1 (stereo partly drawn) [Compound 306] |  |  | +++ (+++ is >60%) | < 1000 | 
Cc1cccc(C)c1-c1cc2nc(n1)NS(=O)(=O)c1cccc(c1)C(=O)N(C1CC(C(=O)N3CCOCC3)C1)[C@H](CC(C)C)CO2 (stereo partly drawn) [Compound 307] |  |  | +++ (+++ is >60%) | < 1000 | 
COC1CCN(C(=O)C2CC(N3C(=O)c4cccc(c4)S(=O)(=O)Nc4nc(cc(-c5c(C)cccc5C)n4)OC[C@H]3CC(C)C)C2)CC1 (stereo partly drawn) [Compound 308] |  |  | +++ (+++ is >60%) | < 1000 | 
COC1(C)CCN(C(=O)C2CC(N3C(=O)c4cccc(c4)S(=O)(=O)Nc4nc(cc(-c5c(C)cccc5C)n4)OC[C@H]3CC(C)C)C2)CC1 (stereo partly drawn) [Compound 309] |  |  | +++ (+++ is >60%) | < 1000 | 
CCOCCN1CCC2(CC1)CC(N1C(=O)c3cccc(c3)S(=O)(=O)Nc3nc(cc(-c4c(C)cccc4C)n3)OC[C@H]1CC(C)C)C2 [Compound 310] |  |  | +++ (+++ is >60%) | < 1000 | 
Cc1cccc(C)c1-c1cc2nc(n1)NS(=O)(=O)c1cccc(c1)C(=O)N(C1CC3(CCN(CC(F)F)CC3)C1)[C@H](CC(C)C)CO2 [Compound 322] |  |  | +++ (+++ is >60%) | < 1000 | 
Cc1cccc(C)c1-c1cc2nc(n1)NS(=O)(=O)c1cccc(c1)C(=O)N(C1CC3(CC(=O)C3)C1)[C@H](CC(C)(C)C)CO2 [Compound 352] |  |  |  |  | Ent. B Max Activity (%) (Table 10): +++ (+++ is >60%); EC50 [1]: < 1000 nM
CCC(=O)NC1CC2(C1)CC(N1C(=O)c3cccc(c3)S(=O)(=O)Nc3nc(cc(-c4c(C)cccc4C)n3)OC[C@H]1CC(C)(C)C)C2 (stereo partly drawn) [Compound 353] |  |  |  |  | Ent. B Max Activity (%) (Table 10): +++ (+++ is >60%); EC50 [1]: < 1000 nM
Cc1cccc(C)c1-c1cc2nc(n1)NS(=O)(=O)c1cccc(c1)C(=O)N(C1CC3(C1)CC(CO)(CO)C3)[C@H](CC(C)(C)C)CO2 [Compound 354] |  |  |  |  | Ent. B Max Activity (%) (Table 10): +++ (+++ is >60%); EC50 [1]: < 1000 nM
CCOC(=O)NC1CC2(C1)CC(N1C(=O)c3cccc(c3)S(=O)(=O)Nc3nc(cc(-c4c(C)cccc4C)n3)OC[C@H]1CC(C)(C)C)C2 (stereo partly drawn) [Compound 357] |  |  |  |  | Ent. B Max Activity (%) (Table 10): +++ (+++ is >60%); EC50 [1]: < 1000 nM
Cc1cccc(C)c1-c1cc2nc(n1)NS(=O)(=O)c1cccc(c1)C(=O)N([C@H]1C[C@@H](N3C[C@@H](C)CC3(C)C)C1)[C@H](CC(C)C)CO2 [Compound 359] |  |  |  |  | Ent. B Max Activity (%) (Table 10): ++ (++ is 30-60%); EC50 [1]: < 1000 nM
